Assay results as given in patent US11178871B2, “Herbicidal pyrimidine compounds” (BASF SE, priority 2016, dated 2021).

Experiments:
Type in all cases: in vivo
Setaria viridis = assay: greenhouse test, post-emergence treatment, SETVI; conditions: 1000 g/ha
Method in brief: (§1)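 Visual injury rating on a 0–100 scale (0 = no damage, 100 = aerial parts fully destroyed) after a 2–4 week test period. Foliar application of compound in aqueous suspension/emulsion to plants at 3–15 cm; greenhouse temperatures 10–25 °C or 20–35 °C depending on species.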

Alopecurus myosuroides = assay: greenhouse test, post-emergence treatment, ALOMY
Method in brief: as §1

Echinocloa crus-galli = assay: greenhouse test, post-emergence treatment, ECHCG
Method in brief: as §1

Apera spica-venti [1] = assay: greenhouse test, post-emergence treatment, APESV
Excerpt: (§2) The culture containers used were plastic flowerpots containing loamy sand with approximately 3.0% of humus as the substrate. The seeds of the test plants were sown separately for each species.
(§3) For the post-emergence treatment, the test plants were first grown to a height of 3 to 15 cm, depending on the plant habit, and only then treated with the active ingredients which had been suspended or emulsified in water. For this purpose, the test plants were either sown directly and grown in the same containers, or they were first grown separately as seedlings and transplanted into the test containers a few days prior to treatment.
(§4) Depending on the species, the plants were kept at 10-25° C. or 20-35° C., respectively.
(§5) The test period extended over 2 to 4 weeks. During this time, the plants were tended, and their response to the individual treatments was evaluated.
(§6) Evaluation was carried out using a scale from 0 to 100. 100 means no emergence of the plants, or complete destruction of at least the aerial moieties, and 0 means no damage, or normal course of growth. A good herbicidal activity is given at values of at least 70 and a very good herbicidal activity is given at values of at least 85.
(§7) The plants used in the greenhouse experiments were of the following species: […]

Amaranthus retroflexus [2] = assay: greenhouse test, pre-emergence treatment, AMARE
Excerpt: as §2
For the pre-emergence treatment, the active ingredients, which had been suspended or emulsified in water, were applied directly after sowing by means of finely distributing nozzles. The containers were irrigated gently to promote germination and growth and subsequently covered with transparent plastic hoods until the plants had rooted. This cover caused uniform germination of the test plants, unless this had been impaired by the active ingredients.
as §4, §5, §6, §7

Matricaria inodora = assay: greenhouse test, post-emergence treatment, MATIN; conditions: 2000 g/ha
Excerpt: as §2, §3, §4, §5, §6, §7

Polygonum convolvulus = assay: greenhouse test, post-emergence treatment, POLCO
Excerpt: as §2, §3, §4, §5, §6, §7

Amaranthus retroflexus [3] = assay: greenhouse test, post-emergence treatment, AMARE
Method in brief: as §1

Abutilon theophrasti = assay: greenhouse test, post-emergence treatment, ABUTH; conditions: 2000 g/ha
Excerpt: as §2, §3, §4, §5, §6, §7

Apera spica-venti [4] = assay: greenhouse test, pre-emergence treatment, APESV
Method in brief: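 Herbicidal effect rated on a 0-100 scale, where 0 is normal growth and 100 is no emergence or destroyed aerial parts, 2 to 4 weeks after soil application at sowing.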

[5] = 1000 g/ha, printed under post-emergence, method not restated
[6] = 500 g/ha, printed under post-emergence, method not restated

In the case of `CCCc1nc(C)c(-c2nc(C3CC3)ncc2-c2ccccc2Cl)o1` [Ex. 313], the herbicidal activity (Setaria viridis) is reported as “very good (a very good herbicidal activity is given at values of at least 85)”, the herbicidal activity (Alopecurus myosuroides; post-emergence, 1000 g/ha) is reported as “very good (a very good herbicidal activity is given at values of at least 85)” and the herbicidal activity (Echinocloa crus-galli; [5]) is reported as “very good (a very good herbicidal activity is given at values of at least 85)”. For the same molecule, the herbicidal activity (Echinocloa crus-galli; post-emergence, 1000 g/ha) was “very good (a very good herbicidal activity is given at values of at least 85)” and the herbicidal activity (Apera spica-venti [1]; 1000 g/ha) was “very good (a very good herbicidal activity is given at values of at least 85)”.

With `COc1ncc(OC)c(-c2nc(C3CC3)ncc2-c2ccccc2Cl)n1` [Ex. 251] the herbicidal activity (Amaranthus retroflexus [2]; 500 g/ha) was “very good (a very good herbicidal activity is given at values of at least 85)”.

With `Fc1cccc(Cl)c1-c1cnc(C2CC2)nc1-c1ccoc1` [Ex. 41] the herbicidal activity (Matricaria inodora) was “very good (a very good herbicidal activity is given at values of at least 85)” and the herbicidal activity (Alopecurus myosuroides; post-emergence, 2000 g/ha) was “very good (a very good herbicidal activity is given at values of at least 85)”.

For `Cc1nc(O)oc1-c1nc(C2CC2)ncc1-c1ccccc1Br` [Ex. 312], the herbicidal activity (Alopecurus myosuroides; [6]) was “very good (a very good herbicidal activity is given at values of at least 85)”, the herbicidal activity (Alopecurus myosuroides; post-emergence, 500 g/ha) was “very good (a very good herbicidal activity is given at values of at least 85)” and the herbicidal activity (Echinocloa crus-galli; [6]) was “very good (a very good herbicidal activity is given at values of at least 85)”. For the same molecule, the herbicidal activity (Echinocloa crus-galli; post-emergence, 500 g/ha) was “very good (a very good herbicidal activity is given at values of at least 85)”, the herbicidal activity (Apera spica-venti [1]; 500 g/ha) was “very good (a very good herbicidal activity is given at values of at least 85)” and the herbicidal activity (Polygonum convolvulus; 500 g/ha) was “very good (a very good herbicidal activity is given at values of at least 85)”.

For `CCc1nc(CC)c(-c2nc(C3CC3)ncc2-c2ccccc2Br)o1` [Ex. 311], the herbicidal activity (Alopecurus myosuroides; [6]) was “very good (a very good herbicidal activity is given at values of at least 85)”, the herbicidal activity (Alopecurus myosuroides; post-emergence, 500 g/ha) was “very good (a very good herbicidal activity is given at values of at least 85)” and the herbicidal activity (Echinocloa crus-galli; [6]) was “very good (a very good herbicidal activity is given at values of at least 85)”. The herbicidal activity (Amaranthus retroflexus [3]; 500 g/ha) was “very good (a very good herbicidal activity is given at values of at least 85)”, the herbicidal activity (Apera spica-venti [1]; 500 g/ha) was “very good (a very good herbicidal activity is given at values of at least 85)” and the herbicidal activity (Polygonum convolvulus; 500 g/ha) was “very good (a very good herbicidal activity is given at values of at least 85)”.

With `COC(=O)C(OC(C)=O)c1nc(C2CC2)ncc1-c1ccccc1Cl` (stereo not drawn) [Ex. 222] the herbicidal activity (Matricaria inodora) was “very good (a very good herbicidal activity is given at values of at least 85)”, the herbicidal activity (Amaranthus retroflexus [3]; 2000 g/ha) was “very good (a very good herbicidal activity is given at values of at least 85)” and the herbicidal activity (Abutilon theophrasti) was “very good (a very good herbicidal activity is given at values of at least 85)”.

With `OC1(c2nc(C3CC3)ncc2-c2ccccc2Cl)C(F)(F)C(F)(F)C(F)(F)C(F)(F)C1(F)F` [Ex. 229] the herbicidal activity (Apera spica-venti [4]; 1000 g/ha) was “very good (a very good herbicidal activity is given at values of at least 85)” and the herbicidal activity (Amaranthus retroflexus [2]; 1000 g/ha) was “good (A good herbicidal activity is given at values of at least 70)”.

In the case of `OC(c1cccs1)C(O)c1nc(C2CC2)ncc1-c1ccccc1Cl` (stereo not drawn) [Ex. 246], the herbicidal activity (Amaranthus retroflexus [2]; 500 g/ha) is reported as “very good (a very good herbicidal activity is given at values of at least 85)”.

`CCc1nc(CC)c(-c2nc(C3CC3)ncc2-c2ccccc2Cl)o1` [Ex. 310] was tested, and the herbicidal activity (Alopecurus myosuroides; [6]) was “very good (a very good herbicidal activity is given at values of at least 85)”, the herbicidal activity (Alopecurus myosuroides; post-emergence, 500 g/ha) was “very good (a very good herbicidal activity is given at values of at least 85)” and the herbicidal activity (Echinocloa crus-galli; [6]) was “very good (a very good herbicidal activity is given at values of at least 85)”. The herbicidal activity (Amaranthus retroflexus [3]; 500 g/ha) was “very good (a very good herbicidal activity is given at values of at least 85)”, the herbicidal activity (Apera spica-venti [1]; 500 g/ha) was “very good (a very good herbicidal activity is given at values of at least 85)” and the herbicidal activity (Polygonum convolvulus; 500 g/ha) was “very good (a very good herbicidal activity is given at values of at least 85)”.

`Cc1ccc(-c2nc(C3CC3)ncc2-c2ccccc2I)o1` [Ex. 108] was tested, and the herbicidal activity (Alopecurus myosuroides; post-emergence, 500 g/ha) was “good (A good herbicidal activity is given at values of at least 70)” and the herbicidal activity (Polygonum convolvulus; 500 g/ha) was “very good (a very good herbicidal activity is given at values of at least 85)”.

In the case of `COC(=O)C(O)(CO)c1nc(C2CC2)ncc1-c1ccccc1Cl` (stereo not drawn) [Ex. 230], the herbicidal activity (Matricaria inodora) is reported as “good (A good herbicidal activity is given at values of at least 70)”.

With `COC(=O)C(C)c1nc(C2CC2)ncc1-c1ccccc1Cl` (stereo not drawn) [Ex. 87] the herbicidal activity (Alopecurus myosuroides; post-emergence, 2000 g/ha) was “very good (a very good herbicidal activity is given at values of at least 85)” and the herbicidal activity (Amaranthus retroflexus [2]; 2000 g/ha) was “good (A good herbicidal activity is given at values of at least 70)”.

In the case of `Clc1ccccc1-c1cnc(C2CC2)nc1-c1ncco1` [Ex. 315], the herbicidal activity (Alopecurus myosuroides; post-emergence, 2000 g/ha) is reported as “very good (a very good herbicidal activity is given at values of at least 85)”, the herbicidal activity (Echinocloa crus-galli; 2000 g/ha, printed under post-emergence, method not restated) is reported as “very good (a very good herbicidal activity is given at values of at least 85)” and the herbicidal activity (Echinocloa crus-galli; post-emergence, 2000 g/ha) is reported as “very good (a very good herbicidal activity is given at values of at least 85)”. The herbicidal activity (Amaranthus retroflexus [3]; 2000 g/ha) was “very good (a very good herbicidal activity is given at values of at least 85)” and the herbicidal activity (Apera spica-venti [1]; 2000 g/ha) was “very good (a very good herbicidal activity is given at values of at least 85)”.

In the case of `OC(Cc1nc(C2CC2)ncc1-c1ccccc1Cl)c1c(Cl)ccc(Cl)c1Cl` (stereo not drawn) [Ex. 231], the herbicidal activity (Matricaria inodora) is reported as “good (A good herbicidal activity is given at values of at least 70)” and the herbicidal activity (Echinocloa crus-galli; post-emergence, 2000 g/ha) is reported as “very good (a very good herbicidal activity is given at values of at least 85)”.

For `Cc1nc(C)c(-c2nc(C3CC3)ncc2-c2c(F)cccc2Cl)o1` [Ex. 309], the herbicidal activity (Alopecurus myosuroides; post-emergence, 1000 g/ha) was “very good (a very good herbicidal activity is given at values of at least 85)”, the herbicidal activity (Echinocloa crus-galli; post-emergence, 1000 g/ha) was “very good (a very good herbicidal activity is given at values of at least 85)” and the herbicidal activity (Amaranthus retroflexus [3]; 1000 g/ha) was “very good (a very good herbicidal activity is given at values of at least 85)”. The herbicidal activity (Apera spica-venti [1]; 1000 g/ha) was “very good (a very good herbicidal activity is given at values of at least 85)”.

`Cc1cnc(-c2nc(C3CC3)ncc2-c2ccccc2Cl)o1` [Ex. 314] was tested, and the herbicidal activity (Setaria viridis) was “very good (a very good herbicidal activity is given at values of at least 85)”, the herbicidal activity (Echinocloa crus-galli; [5]) was “very good (a very good herbicidal activity is given at values of at least 85)” and the herbicidal activity (Echinocloa crus-galli; post-emergence, 1000 g/ha) was “very good (a very good herbicidal activity is given at values of at least 85)”. For the same molecule, the herbicidal activity (Amaranthus retroflexus [3]; 1000 g/ha) was “very good (a very good herbicidal activity is given at values of at least 85)” and the herbicidal activity (Apera spica-venti [1]; 1000 g/ha) was “very good (a very good herbicidal activity is given at values of at least 85)”.

With `COC(C)Cc1nc(C2CC2)ncc1-c1ccccc1Cl` (stereo not drawn) [Ex. 233] the herbicidal activity (Amaranthus retroflexus [2]; 2000 g/ha) was “very good (a very good herbicidal activity is given at values of at least 85)”.

`Clc1ccccc1-c1cnc(C2CC2)nc1-c1cccs1` [Ex. 29] was tested, and the herbicidal activity (Matricaria inodora) was “very good (a very good herbicidal activity is given at values of at least 85)” and the herbicidal activity (Amaranthus retroflexus [3]; 2000 g/ha) was “very good (a very good herbicidal activity is given at values of at least 85)”.

With `OCc1nc(C2CC2)ncc1-c1ccccc1Br` [Ex. 13] the herbicidal activity (Apera spica-venti [4]; 250 g/ha) was “very good (a very good herbicidal activity is given at values of at least 85)”, the herbicidal activity (Alopecurus myosuroides; post-emergence, 250 g/ha) was “very good (a very good herbicidal activity is given at values of at least 85)” and the herbicidal activity (Echinocloa crus-galli; post-emergence, 250 g/ha) was “very good (a very good herbicidal activity is given at values of at least 85)”. The herbicidal activity (Polygonum convolvulus; 250 g/ha) was “very good (a very good herbicidal activity is given at values of at least 85)”.
